# Where “and” joins values, the source holds several entries; their conditions need not be identical. Equal values may be shown once.
# What was measured:
# MCF7 cells = assay: Matrigel invasion assay; type: cell-based; conditions: Homo sapiens, 200 nM, 24 h, vs vehicle
# Description: (§1) Matrigel Invasion Assay. The effect of compound 5 on invasion capability of breast cancer cells was evaluated using BD Biocoat Tumor Invasion Assay System (BD Bioscience, Bedford, Mass.) according to the manufacturer's instruction. Briefly, MDA-MB-231 and MCF7 cells (1×10^6) cells were cultured in the presence of 200 nM of compound 5, along with doxorubicin and vehicle for 24 h in serum free media in the upper chambers/inserts, and the bottom wells were filled with chemo-attractant (complete media with 10% FBS). Cells were allowed to migrate at 37° C. and 5% CO2. After 24 h, the matrigel-coated polycarbonate filters were removed, the non-migrating cells were separated from the upper chamber with a cotton swab and the inserts were fixed with methanol and stained with 0.25% crystal violet solution. For each replicate (n=3), migration of the cells was quantified by counting the stained cells (cells per five random fields) under an inverted microscope (Amin et al., 2015, Mol. Carcinog).
# MDA-MB-231 cells [1] = assay: Matrigel invasion assay; type: cell-based; conditions: Homo sapiens, 200 nM, 24 h, vs vehicle
# Description: as §1
# MDA-MB-231 cells [2] = assay: Drug potentiation, colony formation assay; type: cell-based, human
# Description: Colony Formation Assay. The experiment was performed according to the pre-standardized protocol (Amin et al., 2015, Mol. Carcinog). Accordingly, MDA-MB-231 cells were seeded in 6 well plates at a density of 1×10^3 cells/ well and incubated for 5 days by giving treatment with vehicle, compound 5, doxorubicin alone and/or combination of compound 5 plus doxorubicin (1:1 ratio). Cells were subsequently washed, fixed with methanol and stained with 0.2% crystal violet for 1 h. Cells were counted from atleast 3 random fields for the colony number under an inverted microscope and photographed at 20× magnifications.
# (§2) Drug Potentiation Assay. Briefly, MDA-MB-231 cells were exposed to 200 nM of compound 5, 200 nM of doxorubicin alone and/or combination of both (1:1 ratio) for 48 h in cell viability (MTT) assay, for 5 days in a colony formation assay and subjected to western blotting for the expression of GRP78 and Par-4. The ability of 5 to enhance cell killing was expressed as potentiation index (PI), which was the ratio of the […]. Thus, PI>1 indicates potentiation and PI<1 indicates protection.
# MMP-9 = assay: Immunoblotting, expression of MMP-9; type: cell-based, human; conditions: MDA-MB-231 cells; dose dependent
# Description: (§3) Immunoblotting. MDA-MB-231 and MCF7 cells (0.5×10^6) were plated in six well plates for overnight in a humidified CO2 incubator and then exposed to varying concentrations of 5 (50, 100 and 200 nM) for 24 h along with vehicle (dose dependent study) and 200 nM of 5 for various time points like; 0, 6, 12, 24 and 48 h (time dependent study). Cells were then harvested, washed with chilled PBS and lysed with lysis buffer (HEPES 1 mM, KCl 60 mM, NP-40 0.3%, EDTA 1 mM, DTT 1 mM, sodium orthovanadate 1 mM, PMSF 0.1 mM and cocktail protease inhibitor). The cell extractions were centrifuged at 12,000 rpm for 10 min at 4° C. Protein concentration was measured by the standard Bradford method. An equal amount (20 μg) of protein from each sample was subjected to SDS-PAGE, and proteins were transferred to PVDF membranes (PALL), blocked with 5% (w/v) non-fat milk in PBS containing 0.1% Tween-20, probed with relevant antibodies (1:1000 dilution) for 3 h at room temperature or overnight at 4° C., and subsequently washed and probed with species-specific secondary antibodies coupled to horseradish peroxidase. Immunoreactive proteins were detected by Enhanced Chemiluminescence Plus (Thermo) (Rah et al., 2012, PloS one, 7(9), p.e44039.).
# E-cadherin = assay: Immunoblotting, expression of E-cadherin; type: cell-based, human; conditions: MDA-MB-231 cells; dose dependent
# Description: as §3
# Par-4 = assay: Immunoblotting, expression of Par-4; type: cell-based, human
# Description: as §3, with “An equal amount (20 μg) of protein from each sample was subjected to SDS-PAGE, and proteins were transferred to PVDF membranes (PALL), blocked with 5% (w/v) non-fat milk in PBS containing 0.1% Tween-20, probed with relevant antibodies (1:1000 dilution) for 3 h at room temperature or overnight at 4° C., and subsequently washed and probed with species-specific secondary antibodies coupled to horseradish peroxidase.” left out
# Drug Potentiation Assay. […] The ability of 5 to enhance cell killing was expressed as potentiation index (PI), which was the ratio of the % inhibition of 5 alone at the given dose and the % inhibition in combination with doxorubicin. […]
# MDA-MB-231 cells [3] = assay: Drug potentiation, cell viability (MTT) assay; type: cell-based, human; conditions: 200 nM 5 plus 200 nM doxorubicin (1:1), 48 h
# Description: as §2
# [4] = system: mouse mammary carcinoma (4T1) cells; type: in vivo
# Description: In Vivo Anti-Tumor and Anti-Metastatic Efficacy Studies. To evaluate the antitumor and antimetastatic effect of 5 in vivo, healthy female Balb/c mice (b.w. 18-23 g) were taken. The experimental protocols were approved by the Institutional Animal Ethics Committee, CPCSEA, of Indian Institute of Integrative Medicine, Jammu. The animals were maintained at 22° C. with a 12 h light-dark cycle and free access to feed and water inside the institutional animal house. Proper care was taken to maintain them in a healthy condition and to avoid any risk of possible pathogenic contaminations. For subcutaneous implantation, the mice were randomized into two groups of 5 mice per group and 1.5 million mouse mammary carcinoma (4T1) cells in serum free RPMI media were injected subcutaneously into the mammary fat pad of each mouse. Either 1 week after the tumor cell implantation or when the tumor volume reached ˜150 mm^3, mice were injected intraperitoneally with either normal saline (NS) or parent compound 1 (100 mg/kg, b.w.) or 5 (30 mg/kg, b.w.) in each alternate days for two weeks. Tumor size was recorded on each alternate days post-cell injection and body weights were recorded once per week. Mice were sacrificed on the 15th day of treatment initiation and tumors were incised for its measurement. Metastatic lung nodules were counted using a dissecting microscope. Lungs were then minced into fine pieces, suspended in medium containing collagenase and kept in 37° C. incubator with vigorous shaking for 2 h. The suspension was then filtered with the help of 70 μm cell strainer (BD, USA) to get the single cell suspension. Then, the suspension was serially diluted for 3-4 times in selection medium containing 6-thioguanine, for the selection of 4T1 cells. Each dilution containing the lung cell suspension was then plated into individual petridishes and incubated at 37° C. and 5% CO2 for the growing of 4T1 cell colonies. After 15 days of incubation, cells were washed with PBS, fixed with methanol and stained with 0.2% crystal violet solution for 1 h. Images of the 4T1 colonies were observed, counted and photographed under an inverted microscope at 20× magnification.
smiles,measurement,setting,value
"CCCCCCCC(c1oc(CO)cc(=O)c1O)c1c[nH]c2ccccc12 (stereo not drawn) [Compound 5, 2-{1-(1H-indol-3-yl)octyl}-3-hydroxy-6-(hydroxymethyl)-4H-pyran-4-one]",inhibition at 0.2 µM,MCF7 cells,79%
same,inhibition at 0.2 µM,MDA-MB-231 cells [1],67%
same,potentiation index (PI),"MDA-MB-231 cells [2]; 200 nM 5 plus 200 nM doxorubicin (1:1), 5 days, colony formation",5.2
same,potentiation of the effect of doxorubicin,"MDA-MB-231 cells [2]; summary statement, combination with doxorubicin in breast cancer cells",≤ 6 fold
same,expression of MMP-9,MMP-9,downregulated
same,expression of E-cadherin,E-cadherin,induced significantly
same,increase in the expression of Par-4,"Par-4; MDA-MB-231, 5 and doxorubicin in combination, 24 h, vs each alone, densitometry",5.8 fold
same,expression of Par-4,"Par-4; MDA-MB-231 cells, dose dependent",induced significantly
same,potentiation index (PI),MDA-MB-231 cells [3],3.1
same,decrease in metastatic lung nodules,"[4]; 30 mg/kg b.w. i.p., alternate days for two weeks",84.5%
same,inhibition in tumor growth,"[4]; 30 mg/kg b.w. i.p., alternate days for two weeks, vs normal saline",79.2% and 67%
same,colony formation by 4T1 cells in lung suspension,"[4]; 30 mg/kg b.w., compared to 1 and vehicle treated animals",inhibited drastically

# Source: patent US11180486B2, “Indolylkojyl methane analogues, process of preparation thereof and use as inhibitor of cancer cells invasion and metastasis” (Council of Scientific & Industrial Research, priority 2017, dated 2021)
